{"source": "the NIST ThermoML archive (doi:10.1021/acs.jced.8b01196)", "key": {"[1]": {"assay": "refractive index (Na D-line) (dimensionless)", "conditions": "101.33 kPa, Liquid, Standard Abbe refractometry"}, "[2]": {"assay": "Boiling temperature at pressure P", "conditions": "Liquid, Ebulliometric method (Recirculating still)"}, "[3]": {"conditions": "Liquid; for mass density: 101.33 kPa, Vibrating tube method; for vapor or sublimation pressure: Ebulliometric method (Recirculating still)"}}, "note": "Numbers after ± are expanded uncertainties."}
{"smiles": "CCC(=O)C(C)=O", "note": "[2,3-pentanedione]", "values": [{"measurement": "refractive index", "setting": "[1]; 292.15 K", "value": "1.412 ± 0.001"}, {"measurement": "Boiling temperature at pressure P", "setting": "[2]; 15.33 kPa", "value": "58.52 ± 1.1", "unit": "°C"}, {"measurement": "Boiling temperature at pressure P", "setting": "[2]; 30.35 kPa", "value": "74.90 ± 1.1", "unit": "°C"}, {"measurement": "Boiling temperature at pressure P", "setting": "[2]; 45.32 kPa", "value": "85.6 ± 1.1", "unit": "°C"}, {"measurement": "Boiling temperature at pressure P", "setting": "[2]; 50.34 kPa", "value": "88.2 ± 1", "unit": "°C"}, {"measurement": "Boiling temperature at pressure P", "setting": "[2]; 60.35 kPa", "value": "93.66 ± 1", "unit": "°C"}, {"measurement": "Boiling temperature at pressure P", "setting": "[2]; 65.35 kPa", "value": "96.10 ± 1", "unit": "°C"}, {"measurement": "Boiling temperature at pressure P", "setting": "[2]; 75.35 kPa", "value": "100.40 ± 1", "unit": "°C"}, {"measurement": "Boiling temperature at pressure P", "setting": "[2]; 90.29 kPa", "value": "106.11 ± 1", "unit": "°C"}, {"measurement": "Boiling temperature at pressure P", "setting": "[2]; 100.75 kPa", "value": "109.37 ± 1", "unit": "°C"}, {"measurement": "Boiling temperature at pressure P", "setting": "[2]; 105.45 kPa", "value": "111.8 ± 1", "unit": "°C"}, {"measurement": "Boiling temperature at pressure P", "setting": "[2]; 120.51 kPa", "value": "115.89 ± 1", "unit": "°C"}, {"measurement": "Boiling temperature at pressure P", "setting": "[2]; 135.32 kPa", "value": "118.22 ± 1", "unit": "°C"}, {"measurement": "Boiling temperature at pressure P", "setting": "[2]; 150.5 kPa", "value": "122.59 ± 1", "unit": "°C"}, {"measurement": "Boiling temperature at pressure P", "setting": "[2]; 165.5 kPa", "value": "125.8 ± 1", "unit": "°C"}, {"measurement": "Boiling temperature at pressure P", "setting": "[2]; 180.57 kPa", "value": "128.56 ± 1", "unit": "°C"}, {"measurement": "Boiling temperature at pressure P", "setting": "[2]; 195.59 kPa", "value": "129.97 ± 1", "unit": "°C"}, {"measurement": "Boiling temperature at pressure P", "setting": "[2]; 200.68 kPa", "value": "132.47 ± 1", "unit": "°C"}, {"measurement": "mass density", "setting": "[3]; 292.15 K", "value": "982 ± 2", "unit": "kg/m3"}, {"measurement": "vapor or sublimation pressure", "setting": "[3]; 382.52 K", "value": "100 ± 4", "unit": "kPa"}, {"measurement": "vapor or sublimation pressure", "setting": "[3]; 395.74 K", "value": "150 ± 4", "unit": "kPa"}, {"measurement": "vapor or sublimation pressure", "setting": "[3]; 405.62 K", "value": "200 ± 5", "unit": "kPa"}]}
{"smiles": "CC=O", "note": "[ethanal]", "values": [{"measurement": "refractive index", "setting": "[1]; 293.15 K", "value": "1.337 ± 0.001"}, {"measurement": "Boiling temperature at pressure P", "setting": "[2]; 100.68 kPa", "value": "20.37 ± 1", "unit": "°C"}, {"measurement": "Boiling temperature at pressure P", "setting": "[2]; 105.38 kPa", "value": "21.58 ± 1", "unit": "°C"}, {"measurement": "Boiling temperature at pressure P", "setting": "[2]; 115.48 kPa", "value": "23.93 ± 1", "unit": "°C"}, {"measurement": "Boiling temperature at pressure P", "setting": "[2]; 135.54 kPa", "value": "28.19 ± 1", "unit": "°C"}, {"measurement": "Boiling temperature at pressure P", "setting": "[2]; 150.37 kPa", "value": "31.16 ± 1", "unit": "°C"}, {"measurement": "Boiling temperature at pressure P", "setting": "[2]; 165.44 kPa", "value": "33.89 ± 1", "unit": "°C"}, {"measurement": "Boiling temperature at pressure P", "setting": "[2]; 180.92 kPa", "value": "36.44 ± 1", "unit": "°C"}, {"measurement": "Boiling temperature at pressure P", "setting": "[2]; 195.74 kPa", "value": "39 ± 1", "unit": "°C"}, {"measurement": "Boiling temperature at pressure P", "setting": "[2]; 200.79 kPa", "value": "39.83 ± 1", "unit": "°C"}, {"measurement": "Boiling temperature at pressure P", "setting": "[2]; 210.95 kPa", "value": "41.10 ± 1", "unit": "°C"}, {"measurement": "Boiling temperature at pressure P", "setting": "[2]; 225.32 kPa", "value": "43.23 ± 1", "unit": "°C"}, {"measurement": "Boiling temperature at pressure P", "setting": "[2]; 240.4 kPa", "value": "45.2 ± 1", "unit": "°C"}, {"measurement": "vapor or sublimation pressure", "setting": "[3]; 293.52 K", "value": "100 ± 5", "unit": "kPa"}, {"measurement": "vapor or sublimation pressure", "setting": "[3]; 304.31 K", "value": "150 ± 5", "unit": "kPa"}, {"measurement": "vapor or sublimation pressure", "setting": "[3]; 312.98 K", "value": "200 ± 6", "unit": "kPa"}]}
{"smiles": "CC(C)=O", "note": "[acetone]", "values": [{"measurement": "refractive index", "setting": "[1]; 293.15 K", "value": "1.359 ± 0.001"}, {"measurement": "Boiling temperature at pressure P", "setting": "[2]; 40.32 kPa", "value": "31.47 ± 1", "unit": "°C"}, {"measurement": "Boiling temperature at pressure P", "setting": "[2]; 50.34 kPa", "value": "37.0 ± 1", "unit": "°C"}, {"measurement": "Boiling temperature at pressure P", "setting": "[2]; 60.36 kPa", "value": "41.64 ± 1", "unit": "°C"}, {"measurement": "Boiling temperature at pressure P", "setting": "[2]; 70.3 kPa", "value": "45.74 ± 1", "unit": "°C"}, {"measurement": "Boiling temperature at pressure P", "setting": "[2]; 80.32 kPa", "value": "49.40 ± 1", "unit": "°C"}, {"measurement": "Boiling temperature at pressure P", "setting": "[2]; 90.34 kPa", "value": "52.70 ± 1", "unit": "°C"}, {"measurement": "Boiling temperature at pressure P", "setting": "[2]; 100.38 kPa", "value": "55.74 ± 1", "unit": "°C"}, {"measurement": "Boiling temperature at pressure P", "setting": "[2]; 120.34 kPa", "value": "61.20 ± 1", "unit": "°C"}, {"measurement": "Boiling temperature at pressure P", "setting": "[2]; 140.53 kPa", "value": "65.91 ± 1", "unit": "°C"}, {"measurement": "Boiling temperature at pressure P", "setting": "[2]; 150.68 kPa", "value": "68.4 ± 1", "unit": "°C"}, {"measurement": "Boiling temperature at pressure P", "setting": "[2]; 160.33 kPa", "value": "70.12 ± 1", "unit": "°C"}, {"measurement": "Boiling temperature at pressure P", "setting": "[2]; 180.53 kPa", "value": "73.92 ± 1", "unit": "°C"}, {"measurement": "Boiling temperature at pressure P", "setting": "[2]; 200.55 kPa", "value": "77.42 ± 1", "unit": "°C"}, {"measurement": "Boiling temperature at pressure P", "setting": "[2]; 220.29 kPa", "value": "80.67 ± 1", "unit": "°C"}, {"measurement": "mass density", "setting": "[3]; 298.15 K", "value": "785 ± 2", "unit": "kg/m3"}, {"measurement": "vapor or sublimation pressure", "setting": "[3]; 328.89 K", "value": "100 ± 4", "unit": "kPa"}, {"measurement": "vapor or sublimation pressure", "setting": "[3]; 341.5 K", "value": "150 ± 5", "unit": "kPa"}, {"measurement": "vapor or sublimation pressure", "setting": "[3]; 350.57 K", "value": "200 ± 6", "unit": "kPa"}]}
